According to article PMC7490547 (Frontiers in Pharmacology, 2020):
Read-outs that look alike come from different tables or passages of the source.

Columns and labels:
[1] = biological target: T1, human 5-HT3 receptor (Homo sapiens, UniProt P46098); experiment: Two-electrode voltage clamp of 5-HT-induced currents in Xenopus oocytes expressing human 5-HT3A receptor; type: cell-based; parameters: host or cells: Xenopus laevis oocytes injected with cRNA
T1 sequence (P46098 24-478): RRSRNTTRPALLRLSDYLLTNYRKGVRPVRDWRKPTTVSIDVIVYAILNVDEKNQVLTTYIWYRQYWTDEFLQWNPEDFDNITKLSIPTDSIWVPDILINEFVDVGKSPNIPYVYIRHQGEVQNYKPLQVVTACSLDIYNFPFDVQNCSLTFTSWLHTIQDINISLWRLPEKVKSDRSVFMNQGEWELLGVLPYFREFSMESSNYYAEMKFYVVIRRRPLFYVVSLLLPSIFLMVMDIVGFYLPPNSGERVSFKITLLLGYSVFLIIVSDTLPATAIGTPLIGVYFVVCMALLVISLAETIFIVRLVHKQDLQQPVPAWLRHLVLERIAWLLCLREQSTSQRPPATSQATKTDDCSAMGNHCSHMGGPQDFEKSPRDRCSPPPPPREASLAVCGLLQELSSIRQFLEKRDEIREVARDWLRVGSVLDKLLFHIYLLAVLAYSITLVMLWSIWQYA
Source text: Mature female Xenopus laevis frogs were obtained from Xenopus leavis I, Ann Arbor, MI, USA. Experiments and methods used in this study were in accordance with the Guide for the Care and Use of Laboratory Animals of the National Institutes of Health (Bethesda, MD, USA) and our protocol (A9/08) was approved by the Institutional Animal Care and Use Committee at the College of Medicine and Health Sciences, United Arab Emirates University. Clusters of oocytes were removed surgically under benzocaine (0.03% w/v; Sigma, St.Louis, MO) anesthesia. Individually dissected oocytes were stored for 2 to 8 days in modified Barth’s solution (MBS) containing (in mM): NaCl 88; KCl 1; NaHCO3 2.4; CaCl2; 2; MgSO4 0.8; HEPES 10 (pH 7.5), supplemented with sodium pyruvate 2 mM, penicillin 10,000 IU/L, streptomycin 10 mg/L, gentamicin 50 mg/L, and theophylline 0.5 mM. […] In co-expression of subunit combinations, cDNAs for 5-HT3A and 5-HT3B subunits, were mixed in ratios of 1:1 (or 1:2), respectively. Following day, oocytes were placed in a 0.2 ml recording chamber and superfused at a constant rate of 3 to 5 ml/min. […] The oocytes were impaled with two standard glass microelectrodes filled with a 3 M KCl (1–3 MΩ) and voltage clamped at a holding potential of −70 mV using GeneClamp-500B amplifier (Axon Instruments Inc., Burlingame, CA). […] Compounds were applied by addition to the superfusate. […] Injections were performed 10 min prior to recordings using oil-driven ultra microsyringe pumps (Micro4; WPI, Inc. Sarasota, FL, USA).
The cDNA clones of the human 5-HT3A and 5-HT3B subunits were provided by OriGen Inc. (Rockville, MD). Complementary RNAs (cRNAs) were synthesized in vitro using a mMessage mMachine RNA transcription kit (Ambion Inc., Austin, TX). The quality and size of synthesized cRNAs were confirmed by denatured RNA agarose gels.
For the nonlinear curve fitting and regression fits of the dose-response curves and radio-ligand binding data, the computer software Origin™ 8.5 (Originlab Corp. Northampton, MA, USA) was used. In functional assays, average values were calculated as mean ± standard error means (S.E.M.). Statistical significance was analyzed using ANOVA or Student’s t test and post hoc Bonferroni test was used following ANOVA. Concentration-response curves were obtained by fitting the data to the logistic equation, […]

[2] = test system: voltage-gated Na+ channels; details: cited from earlier work
[3] = parameters: method as in Lee et al., 1997; Wohlrab et al., 2015; details: assumed value; ref Lee et al., 1997; Wohlrab et al., 2015; cited from earlier work
[4] = biological target: T2, human 5-HT3AB receptors (Homo sapiens, UniProt O95264+P46098); experiment: Two-electrode voltage clamp in Xenopus oocytes co-expressing 5-HT3A and 5-HT3B subunits; type: cell-based; details: 100 µM; 3 µM 5-HT for 5-HT3A and 30 µM 5-HT for 5-HT3AB; n = 5–7, P>0.05
T2 construct: host or cells: Xenopus laevis oocytes, subunits injected at ratios 1:1 or 1:2
T2 sequence (P46098 24-478): T1 sequence (P46098 24-478)
T2 sequence (O95264 22-441): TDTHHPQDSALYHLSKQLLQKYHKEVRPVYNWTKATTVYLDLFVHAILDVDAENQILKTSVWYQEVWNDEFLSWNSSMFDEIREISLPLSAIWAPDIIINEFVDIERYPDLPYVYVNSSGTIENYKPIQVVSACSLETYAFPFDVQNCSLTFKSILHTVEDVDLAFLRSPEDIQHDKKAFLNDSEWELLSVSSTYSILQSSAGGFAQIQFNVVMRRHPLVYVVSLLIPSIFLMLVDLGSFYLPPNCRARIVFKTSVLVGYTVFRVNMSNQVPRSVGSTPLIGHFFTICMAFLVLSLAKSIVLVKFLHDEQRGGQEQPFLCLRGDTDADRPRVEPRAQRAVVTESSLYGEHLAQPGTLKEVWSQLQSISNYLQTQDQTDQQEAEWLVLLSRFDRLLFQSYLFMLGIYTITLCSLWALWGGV
Source text: Mature female Xenopus laevis frogs were obtained from Xenopus leavis I, Ann Arbor, MI, USA. Experiments and methods used in this study were in accordance with the Guide for the Care and Use of Laboratory Animals of the National Institutes of Health (Bethesda, MD, USA) and our protocol (A9/08) was approved by the Institutional Animal Care and Use Committee at the College of Medicine and Health Sciences, United Arab Emirates University. Clusters of oocytes were removed surgically under benzocaine (0.03% w/v; Sigma, St.Louis, MO) anesthesia. Individually dissected oocytes were stored for 2 to 8 days in modified Barth’s solution (MBS) containing (in mM): NaCl 88; KCl 1; NaHCO3 2.4; CaCl2; 2; MgSO4 0.8; HEPES 10 (pH 7.5), supplemented with sodium pyruvate 2 mM, penicillin 10,000 IU/L, streptomycin 10 mg/L, gentamicin 50 mg/L, and theophylline 0.5 mM. Human 5-HT3A receptor cRNA (3 ng in 50 nl) was injected into each oocyte as described before ([Ashoor et al., 2013]). In co-expression of subunit combinations, cDNAs for 5-HT3A and 5-HT3B subunits, were mixed in ratios of 1:1 (or 1:2), respectively. […] Current responses were digitized by A/D converter and analyzed using pClamp 10.4 (Molecular Devices-Axon Instruments, San Jose, CA USA) or Origin™ (Originlab Corp. Northampton, MA, USA), run on an IBM/PC. […]

[5] = parameters: method as in Rollyson et al., 2014; Swain and Kumar Mishra, 2015; details: ref Rollyson et al., 2014; Swain and Kumar Mishra, 2015; cited from earlier work
[6] = test system: K+ channels; details: cited from earlier work
[7] = test system: Ca2+ channels; details: cited from earlier work
[8] = biological target: T3, human 5-HT3A receptor (Homo sapiens, UniProt P46098); type: cell-based
T3 construct: expressed in transfected cells; host or cells: HEK293-AEQ17 cells (HEK 293 stably expressing apoaequorin), transient transfection
T3 sequence (P46098 24-478): T1 sequence (P46098 24-478)
Experimental: Cells were seeded in 25-cm^2 cell culture flasks in Dulbecco’s modified Eagle’s medium (DMEM)/Ham’s F12 (1:1) + 10% fetal bovine serum to obtain a cell density of 50% to 70%, and the following day, transiently transfected with cDNA encoding human 5-HT3A receptor (3 µg) using Lipofectamine 2000 reagent (Thermo Fisher Scientific-Invitrogen, Waltham, MA) according to the manufacturer’s instructions. Two days after transfection, cells were harvested by centrifugation and resuspended in 0.5 ml (25-cm^2 flask) DMEM/Ham’s F12 (1:1) + 0.1% bovine serum albumin. The cell suspension was incubated with 10 μM Coelenterazine h (Thermo Fisher Scientific-Invitrogen, Waltham, MA, USA) for three hours at room temperature in the dark. […] Luminescence was measured using a Luminoskan (Thermo Fisher Scientific, Waltham, MA, USA) equipped with an injector and recorded at a sampling rate of 2 Hz for up to 60 s. At the end of the experiments, cells were lysed with Triton X-100 0.1% (v/v) and CaCl2 50 mM, and aequorin luminescence was recorded to obtain the maximum Ca^2+ response. […] Data were exported to software Origin™ 8.5 (Originlab Corp. Northampton, MA, USA).

COc1cc(CNC(=O)CCCCCCC(C)C)ccc1O [dihydrocapsaicin, Dihydrocapsaicin] showed an inhibition at 100 µM ([1]; read-out: 5-HT3 receptors inhibited to (% )) of 62%.

For COc1cc(CNC(=O)CCCC/C=C/C(C)C)ccc1O [capsaicin, (E)-N-[(4-Hydroxy-3-methoxyphenyl)methyl]-8-methyl-6-nonenamide], the IC50 ([2]; ref Bielefeldt, 2000) is given as 40 µM, the IC50 ([2]; ref Duan et al., 2007) is given as 39 µM and the IC50 ([2]; ref Tomohiro et al., 2013) is given as 100 µM. For the same compound, the IC50 ([2]; ref Wang et al., 2007) was 76 µM, the “fraction of topically applied capsaicin absorbed into the skin” value [3] was 2% and the “extent of inhibition among 5-HT3A, 5-HT3AB (1:1) and 5-HT3AB (1:2) receptors” value [4] was “not statistically different”. For the same compound, the “LogP (octanol–water partition coefficient)” value [5] was 3.8, the IC50 ([6]; ref Aréchiga-Figueroa et al., 2017) was 10 µM and the IC50 ([6]; ref Grissmer et al., 1994) was 158 µM. For the same compound, the IC50 ([6]; ref Kuenzi and Dale, 1996) was 21 µM, the IC50 ([6]; ref Wu et al., 2011) was 103 µM and the IC50 ([7]; ref Castillo et al., 2007) was 38 µM. The IC50 ([7]; ref Kuenzi and Dale, 1996) was 44 µM.

With Oc1cc2c(cc1O)CN(C(=S)NCCc1ccc(Cl)cc1)CCC2 [capsazepine] the “change in amplitudes of 5-HT3 receptor-mediated currents, compound alone” value ([1]; 10 µM, 5-HT 1 µM, n = 4) was “did not cause any significant change”.

For CN1[C@@H]2CC[C@H]1C[C@@H](OC(=O)c1cc(Cl)cc(Cl)c1)C2 [MDL72222, Tropanyl 3,5-dichlorobenzoate], the “inhibition of fast inward currents activated by 5-HT (1 μM) or 2-methyl-5-HT (10 μM)” value ([1]; 0.5 µM, n = 7) was “completely inhibited”.

With COc1cc(C=O)ccc1O [vanillin] the “effect on 5-HT3 receptor currents” value ([1]; 100 µM for 15 min, n = 8, P>0.05) was “did not affect”.

For NCCc1c[nH]c2ccc(O)cc12 [5-HT, 5-hydroxytryptamine], the “luminescence activation in cells not transfected with 5-HT3” value ([8]; 30 μM, coelenterazine h-loaded HEK-293-AEQ17 cells, n = 4) was “did not cause luminescence activation” and the “slope of the aequorin concentration-response curve” value ([8]; HEK-293-AEQ17 cells transfected with human 5-HT3 receptor) was 2.7.
